The source made the active and inactive calls.
Columns and labels:
[1] = target: T1, Tyrosine-protein phosphatase non-receptor type 7 (Homo sapiens, UniProt P35236); assay: SAR analysis of chemical inhibitors of HePTP using a Fluorescent assay - Set 2. [Related pubchem assays (depositor defined):AID1059, AID1077, AID1661, AID2085, AID521]; type: functional
T1 sequence (P35236 whole entry): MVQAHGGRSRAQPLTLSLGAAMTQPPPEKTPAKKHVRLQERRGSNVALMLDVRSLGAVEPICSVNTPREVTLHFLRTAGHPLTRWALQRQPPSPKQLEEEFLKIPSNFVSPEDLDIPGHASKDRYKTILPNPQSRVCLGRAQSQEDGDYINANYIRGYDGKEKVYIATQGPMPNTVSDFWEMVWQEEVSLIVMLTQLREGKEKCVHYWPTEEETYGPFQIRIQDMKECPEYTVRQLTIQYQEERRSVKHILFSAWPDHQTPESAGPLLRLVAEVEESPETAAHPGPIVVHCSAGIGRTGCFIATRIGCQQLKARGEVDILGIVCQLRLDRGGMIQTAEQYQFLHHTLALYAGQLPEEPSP

[2] = target: Dual specificity protein phosphatase 3 (Homo sapiens, UniProt P51452); assay: SAR VHR1 Fluorescent Assay for In Vitro dose response studies Set 2. [Related pubchem assays (depositor defined):AID1654, AID1661, AID1878]; type: functional
Sequence of Dual specificity protein phosphatase 3 (P51452 whole entry): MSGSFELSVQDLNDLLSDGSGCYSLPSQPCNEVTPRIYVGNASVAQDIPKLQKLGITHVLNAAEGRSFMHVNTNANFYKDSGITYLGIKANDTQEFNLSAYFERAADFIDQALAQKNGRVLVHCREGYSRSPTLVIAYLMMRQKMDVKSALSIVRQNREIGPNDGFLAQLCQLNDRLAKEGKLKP

BJ [3] = assay: BJ-TERT-LT-ST fibroblast viability loss – cell-based, RAS-independent, luminescence, dose response (AID 1935); type: functional; conditions: Homo sapiens;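 note: BJ fibroblasts immortalized with TERT plus LT and ST oncogenes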
[4] = target: DNA dC->dU-editing enzyme APOBEC-3G (Homo sapiens, UniProt Q9HC16); type: functional;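 note: Dose-response counterscreen measuring inhibition of APOBEC3G DNA deaminase activity, run while confirming APOBEC3A inhibitors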
Sequence of DNA dC->dU-editing enzyme APOBEC-3G (Q9HC16 whole entry): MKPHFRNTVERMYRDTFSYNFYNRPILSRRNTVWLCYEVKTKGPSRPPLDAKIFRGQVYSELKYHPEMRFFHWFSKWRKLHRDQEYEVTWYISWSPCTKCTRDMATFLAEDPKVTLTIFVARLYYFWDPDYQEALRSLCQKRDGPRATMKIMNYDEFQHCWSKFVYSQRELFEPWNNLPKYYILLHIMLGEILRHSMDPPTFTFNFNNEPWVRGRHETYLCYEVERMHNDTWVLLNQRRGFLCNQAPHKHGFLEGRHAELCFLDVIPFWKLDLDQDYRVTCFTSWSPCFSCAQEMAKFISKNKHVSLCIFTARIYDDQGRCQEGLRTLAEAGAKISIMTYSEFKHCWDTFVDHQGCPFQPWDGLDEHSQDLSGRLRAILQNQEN

BJ [5] = assay: BJ-TERT fibroblast viability loss – cell-based, RAS-independent, luminescence, dose response (AID 1933); type: functional; conditions: Homo sapiens
[6] = target: DNA dC->dU-editing enzyme APOBEC-3A (Homo sapiens, UniProt P31941); assay: Dose Response confirmation of small molecule APOBEC3A DNA Deaminase Inhibitors via a fluorescence-based single-stranded DNA deaminase assay. [Related pubchem assays (depositor defined):AID493011, AID493024]; type: functional
Sequence of DNA dC->dU-editing enzyme APOBEC-3A (P31941 whole entry): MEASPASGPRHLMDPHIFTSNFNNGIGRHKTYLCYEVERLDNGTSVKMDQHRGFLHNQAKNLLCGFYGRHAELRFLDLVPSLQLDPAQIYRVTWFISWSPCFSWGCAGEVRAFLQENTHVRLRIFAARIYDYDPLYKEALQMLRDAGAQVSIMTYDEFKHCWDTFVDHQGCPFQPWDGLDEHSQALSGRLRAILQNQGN

[7] = target: FAD-linked sulfhydryl oxidase ALR (Homo sapiens, UniProt P55789); assay: ALR-catalysed DTT oxidation blockers – biochemical, H2O2 detection, luminescence, cherry-pick, dose response (AID 493248)
Sequence of FAD-linked sulfhydryl oxidase ALR (P55789 whole entry): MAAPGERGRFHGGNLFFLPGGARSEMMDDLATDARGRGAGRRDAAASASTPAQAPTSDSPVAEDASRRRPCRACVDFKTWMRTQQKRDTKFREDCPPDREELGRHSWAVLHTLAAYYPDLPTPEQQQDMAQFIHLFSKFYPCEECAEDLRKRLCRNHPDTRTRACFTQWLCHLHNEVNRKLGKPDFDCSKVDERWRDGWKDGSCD

[8] = HEK-293T viability loss after treatment – luminescence, T-cell screen hits, cytotoxicity control for TCR NF-kB inhibitor project, dose response (AID 489026); type: functional, cell-based;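 note: cells exposed to compound about 14 hours before the viability readout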
[9] = DRD fibroblast viability loss – cell-based, non-viral oncogenic, luminescence, dose response (AID 1934); type: functional; conditions: Homo sapiens
BJ [10] = assay: cells; type: functional, cell-based; conditions: Homo sapiens
[11] = microbe, parasite or virus in culture; type: functional; conditions: Mycobacterium tuberculosis
Protein skinhead-1 = target: T2, Protein skinhead-1 (Caenorhabditis elegans, UniProt P34707); type: functional
T2 sequence (P34707 whole entry): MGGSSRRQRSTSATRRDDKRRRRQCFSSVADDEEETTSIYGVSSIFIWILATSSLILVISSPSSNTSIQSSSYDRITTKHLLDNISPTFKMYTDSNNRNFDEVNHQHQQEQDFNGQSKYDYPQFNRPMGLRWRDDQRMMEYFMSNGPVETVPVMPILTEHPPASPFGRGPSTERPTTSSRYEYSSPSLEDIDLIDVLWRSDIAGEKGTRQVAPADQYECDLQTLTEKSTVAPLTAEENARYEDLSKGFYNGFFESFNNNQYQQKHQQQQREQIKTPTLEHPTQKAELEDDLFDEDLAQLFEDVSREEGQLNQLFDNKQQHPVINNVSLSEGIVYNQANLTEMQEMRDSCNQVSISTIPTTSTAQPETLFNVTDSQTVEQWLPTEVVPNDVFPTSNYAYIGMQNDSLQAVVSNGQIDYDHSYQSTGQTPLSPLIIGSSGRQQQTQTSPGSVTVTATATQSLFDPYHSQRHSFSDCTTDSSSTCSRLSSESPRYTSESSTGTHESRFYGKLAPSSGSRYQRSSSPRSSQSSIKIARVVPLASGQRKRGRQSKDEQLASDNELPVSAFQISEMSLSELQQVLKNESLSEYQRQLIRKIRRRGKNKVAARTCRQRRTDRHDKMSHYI

Coagulation factor XII = target: T3, Coagulation factor XII (Homo sapiens, UniProt P00748); assay: activated coagulation factor XII inhibitor potency, concentration-effect curve, cell-free (AID 716); type: functional
T3 sequence (P00748 whole entry): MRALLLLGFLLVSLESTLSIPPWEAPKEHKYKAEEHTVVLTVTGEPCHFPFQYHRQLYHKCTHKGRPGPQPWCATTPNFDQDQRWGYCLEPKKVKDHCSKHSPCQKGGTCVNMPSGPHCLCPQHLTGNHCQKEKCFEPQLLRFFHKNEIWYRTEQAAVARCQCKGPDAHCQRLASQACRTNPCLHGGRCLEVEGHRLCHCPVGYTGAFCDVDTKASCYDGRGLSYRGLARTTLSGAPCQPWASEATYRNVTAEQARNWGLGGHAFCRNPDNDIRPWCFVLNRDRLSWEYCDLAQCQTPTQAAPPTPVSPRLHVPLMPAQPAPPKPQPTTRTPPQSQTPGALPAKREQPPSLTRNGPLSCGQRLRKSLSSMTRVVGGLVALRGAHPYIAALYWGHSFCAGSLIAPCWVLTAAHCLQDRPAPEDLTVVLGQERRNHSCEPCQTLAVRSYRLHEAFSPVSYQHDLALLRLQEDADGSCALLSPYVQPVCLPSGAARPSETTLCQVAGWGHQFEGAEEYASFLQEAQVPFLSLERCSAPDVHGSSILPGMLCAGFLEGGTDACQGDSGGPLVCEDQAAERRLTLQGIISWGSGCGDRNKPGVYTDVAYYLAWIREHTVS

[12] = target: T4, Type-1 angiotensin II receptor (Homo sapiens, UniProt P30556); assay: agonist activity at AGTR1 – cell-based, uHTS hits, selectivity assay for APJ receptor agonist project, dose response (AID 488865); type: functional;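 note: beta-arrestin recruitment to AT1 measured by enzyme fragment complementation luminescence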
T4 sequence (P30556 whole entry): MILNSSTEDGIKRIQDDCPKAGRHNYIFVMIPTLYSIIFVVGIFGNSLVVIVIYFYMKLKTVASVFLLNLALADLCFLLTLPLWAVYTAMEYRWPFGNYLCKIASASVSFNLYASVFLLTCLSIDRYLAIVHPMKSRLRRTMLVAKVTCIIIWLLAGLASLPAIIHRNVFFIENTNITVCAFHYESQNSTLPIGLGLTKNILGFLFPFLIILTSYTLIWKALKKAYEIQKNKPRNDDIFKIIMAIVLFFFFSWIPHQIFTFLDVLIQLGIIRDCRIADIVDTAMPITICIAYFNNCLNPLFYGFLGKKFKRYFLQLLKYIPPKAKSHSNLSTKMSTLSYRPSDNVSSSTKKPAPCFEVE

[13] = target: T5, Kappa-type opioid receptor (Homo sapiens, UniProt P41145); assay: SAR analysis of Antagonists of the Kappa Opioid Receptor (KOR) using an Image-Based Assay - Set 3. [Related pubchem assays (depositor defined):AID1777, AID1785]; type: functional
T5 sequence (P41145 whole entry): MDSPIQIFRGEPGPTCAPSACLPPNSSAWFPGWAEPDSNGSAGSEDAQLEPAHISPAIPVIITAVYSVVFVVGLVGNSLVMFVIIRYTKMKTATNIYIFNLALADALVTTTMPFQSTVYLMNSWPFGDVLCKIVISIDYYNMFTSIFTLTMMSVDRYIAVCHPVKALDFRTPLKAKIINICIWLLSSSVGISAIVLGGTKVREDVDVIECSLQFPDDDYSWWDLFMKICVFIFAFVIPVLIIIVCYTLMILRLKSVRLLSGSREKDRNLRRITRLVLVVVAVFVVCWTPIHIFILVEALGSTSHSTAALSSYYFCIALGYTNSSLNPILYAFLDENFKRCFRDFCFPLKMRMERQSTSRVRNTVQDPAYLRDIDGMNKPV

[14] = target: Delta-type opioid receptor (Homo sapiens, UniProt P41143); assay: SAR Analysis of Antagonists of the DOR Receptor using an Image-Based Assay - Set 3. [Related pubchem assays (depositor defined):AID1777, AID1785]; type: functional;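 note: U2OS cells expressing DOR1 and beta-arrestin GFP stimulated with 100 nM SNC80; imaging of GFP-tagged beta-arrestin moving into spots after receptor activation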
Sequence of Delta-type opioid receptor (P41143 whole entry): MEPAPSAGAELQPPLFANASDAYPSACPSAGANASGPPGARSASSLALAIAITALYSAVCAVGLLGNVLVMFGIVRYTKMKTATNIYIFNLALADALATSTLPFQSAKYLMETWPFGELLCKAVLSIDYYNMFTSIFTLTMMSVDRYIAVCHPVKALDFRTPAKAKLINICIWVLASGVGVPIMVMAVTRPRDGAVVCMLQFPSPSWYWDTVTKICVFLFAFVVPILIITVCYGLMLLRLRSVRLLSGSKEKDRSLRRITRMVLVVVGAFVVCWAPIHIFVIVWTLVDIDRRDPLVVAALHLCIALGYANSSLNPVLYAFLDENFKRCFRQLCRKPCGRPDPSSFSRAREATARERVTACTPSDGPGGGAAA

Mu-type opioid receptor = Mu-type opioid receptor (Homo sapiens, UniProt P35372); assay: SAR Analysis of Antagonists of the MOR Receptor using an Image-Based Assay - Set 3. [Related pubchem assays (depositor defined):AID1777, AID1785, AID1786, AID1966, AID2133, AID2136, AID2284, AID2285, AID2420]; type: functional
Sequence of Mu-type opioid receptor (P35372 whole entry): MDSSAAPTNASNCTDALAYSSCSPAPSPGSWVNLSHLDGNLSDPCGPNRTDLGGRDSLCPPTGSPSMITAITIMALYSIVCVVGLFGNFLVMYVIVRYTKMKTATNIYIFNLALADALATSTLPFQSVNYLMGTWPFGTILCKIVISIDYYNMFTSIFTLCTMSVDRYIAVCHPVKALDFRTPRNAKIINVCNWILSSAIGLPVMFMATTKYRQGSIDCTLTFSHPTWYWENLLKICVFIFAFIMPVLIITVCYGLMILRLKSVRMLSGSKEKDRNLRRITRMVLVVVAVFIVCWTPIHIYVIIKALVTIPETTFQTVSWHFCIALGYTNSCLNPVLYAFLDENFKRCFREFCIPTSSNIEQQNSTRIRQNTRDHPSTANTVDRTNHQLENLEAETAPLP

[15] = target: T5, Kappa-type opioid receptor; assay: SAR analysis of small molecule antagonists of the kappa opioid receptor via a luminescent beta-arrestin assay - Set 3. [Related pubchem assays (depositor defined):AID1777, AID1778, AID1785, AID1786, AID1966, AID2133, AID2136, AID2285, AID2495]; type: functional
[16] = target: T6, Short transient receptor potential channel 4 (Mus musculus, UniProt Q9QUQ5); assay: calcium entry via TRPC4 opening agents – cell-based, HEK293 TRPC4/mu-opioid, Fluo-4 calcium, dose response (AID 434937); type: functional
T6 sequence (Q9QUQ5 whole entry): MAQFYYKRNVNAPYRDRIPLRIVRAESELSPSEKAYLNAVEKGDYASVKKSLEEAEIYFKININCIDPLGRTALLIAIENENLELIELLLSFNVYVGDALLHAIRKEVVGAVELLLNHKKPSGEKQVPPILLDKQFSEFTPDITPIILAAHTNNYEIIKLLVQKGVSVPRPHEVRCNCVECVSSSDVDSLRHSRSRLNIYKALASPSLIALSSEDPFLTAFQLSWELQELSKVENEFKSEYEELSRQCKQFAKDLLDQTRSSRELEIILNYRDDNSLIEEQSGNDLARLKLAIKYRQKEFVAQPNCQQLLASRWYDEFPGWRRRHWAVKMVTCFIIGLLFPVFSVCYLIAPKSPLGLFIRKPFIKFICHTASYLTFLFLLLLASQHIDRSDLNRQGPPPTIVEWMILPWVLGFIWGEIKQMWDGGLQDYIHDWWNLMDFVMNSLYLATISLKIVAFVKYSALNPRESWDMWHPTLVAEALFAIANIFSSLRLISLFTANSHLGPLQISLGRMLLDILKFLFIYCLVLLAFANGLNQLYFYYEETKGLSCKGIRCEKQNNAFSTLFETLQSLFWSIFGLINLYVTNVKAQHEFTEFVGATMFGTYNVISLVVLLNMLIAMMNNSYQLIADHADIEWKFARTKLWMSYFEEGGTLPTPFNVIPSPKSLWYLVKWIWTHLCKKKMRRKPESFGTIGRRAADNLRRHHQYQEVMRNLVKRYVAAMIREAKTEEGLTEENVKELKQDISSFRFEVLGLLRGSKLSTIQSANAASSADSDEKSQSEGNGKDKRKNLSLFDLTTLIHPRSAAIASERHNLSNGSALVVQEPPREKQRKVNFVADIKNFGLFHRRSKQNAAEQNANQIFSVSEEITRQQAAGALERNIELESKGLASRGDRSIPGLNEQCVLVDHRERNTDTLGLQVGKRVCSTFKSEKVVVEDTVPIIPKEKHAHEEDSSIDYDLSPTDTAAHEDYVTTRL

[17] = target: T6, Short transient receptor potential channel 4; assay: potentiation of DAMGO-evoked TRPC4 calcium signal – cell-based, HEK293 TRPC4/mu-opioid, Fluo-4 calcium, EC20 DAMGO, dose response (AID 434941); type: functional
[18] = system: Streptococcus sp. 'group A'; assay: Streptococcus pyogenes SK(-)GAS viability under kanamycin – luminescence, BacTiterGlo, confirmation, counter-screen for streptokinase expression inhibitor project, dose response (AID 1900); type: functional, organism-based
Streptokinase A = target: T7, Streptokinase A (Streptococcus pyogenes serotype M1, UniProt P10520); assay: viability-normalized secreted streptokinase activity reduction – plasminogen activation absorbance, OD405, dose response (AID 1914); type: functional, Streptococcus pyogenes M1 GAS;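 note: secreted streptokinase activity via plasminogen activation per viability signal from cell pellet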
T7 sequence (P10520 whole entry): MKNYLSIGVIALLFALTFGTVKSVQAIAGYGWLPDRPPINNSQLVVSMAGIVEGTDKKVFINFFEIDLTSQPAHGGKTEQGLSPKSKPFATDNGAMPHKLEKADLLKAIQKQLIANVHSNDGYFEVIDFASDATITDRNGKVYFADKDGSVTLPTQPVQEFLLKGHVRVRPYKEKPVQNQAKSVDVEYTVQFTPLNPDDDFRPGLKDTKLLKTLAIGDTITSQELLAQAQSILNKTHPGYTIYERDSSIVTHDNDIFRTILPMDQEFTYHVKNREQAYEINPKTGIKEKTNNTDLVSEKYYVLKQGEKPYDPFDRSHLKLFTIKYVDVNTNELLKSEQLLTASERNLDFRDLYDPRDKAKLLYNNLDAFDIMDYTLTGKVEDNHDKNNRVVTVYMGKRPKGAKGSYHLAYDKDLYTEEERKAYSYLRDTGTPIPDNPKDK

Streptococcus = assay: GAS UMAA2166 growth inhibition – luminescence, BacTiterGlo, counter-screen for streptokinase expression inhibitor project, dose response (AID 1915); type: functional, organism-based;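 note: potency for reduction of bacterial viability or growth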
T-cell = assay: loss of vesicle association with mouse CD8+ T cells – mouse 2C CD8+ T cells, flow cytometry, dose response (AID 485284); type: functional

C=CCn1c(N)c(C(=O)N2CCN(C)CC2)sc1=S
IC50 [1]: 77.7 µM (active) | IC50 [2]: 61.2 µM (active)

CC(C)CC[n+]1ccccc1C=Cc1ccc(N(C)C)cc1
EC50 (BJ [3]): > 150 µM (inconclusive) | IC50 [4]: 19.3 µM (active) | EC50 (BJ [5]): 3.6 µM (active) | IC50 [6]: 6.84 µM (active) | AC50 [7]: 1.36 µM (active) | IC50 [8]: > 80 µM (inactive) | EC50 [9]: 22.8 µM (inconclusive) | EC50 (BJ [10]): 15.5 µM (active) | CC50 [11]: > 40 µM (active)

CCC(c1nnnn1Cc1ccc2c(c1)OCO2)N1CCN(c2ccc(F)cc2)CC1 (stereo not given)
IC50 (Protein skinhead-1): > 100 µM (inactive) | IC50 (Coagulation factor XII): > 50 µM (inactive)

CC1(OC(=O)C2CCCC2)C(=O)C=C2C=C(c3ccsc3)N(C3CCCC3)C=C2C1=O (stereo not given)
EC50 [12]: > 100 µM (inactive)

Cc1ccc(S(=O)(=O)NCc2ccc(C(=O)NCCN(Cc3ccccc3)Cc3ccccc3)cc2)cc1
IC50 [13]: 7.47 µM (active) | IC50 [14]: > 32 µM (inactive) | IC50 (Mu-type opioid receptor): > 32 µM (inactive) | IC50 [15]: 16.2 µM (inactive)

COc1cc(/C=C2/SC(=S)N(Cc3ccccc3)C2=O)cc(Cl)c1O
EC50 [16]: 5.31 µM (active) | EC50 [17]: 1.5 µM (active) | IC50 (Protein skinhead-1): > 100 µM (inactive) | EC50 [18]: 5.2 µM (active) | EC50 (Streptokinase A): > 150 µM (not active) | EC50 (Streptococcus): 5.86 µM (active)

O=C(Cn1cc(C(F)(F)F)cc(Cl)c1=O)NCCc1ccc(Cl)cc1Cl
EC50 (T-cell): 7.63 µM (active)
